Reference: patent US20200390100A1, “SUBSTITUTED N-HETEROCYCLYL- AND N-HETEROARYL-TETRAHYDROPYRIMIDINONES AND THE SALTS THEREOF, AND THE USE OF SAME AS HERBICIDAL ACTIVE SUBSTANCES” (Bayer Aktiengesellschaft, priority 2017, published 2020)

Tests used:
Digitaria sanguinalis = test: Pre-emergence herbicidal action, greenhouse, 320 g/ha; type: in vivo; details: application rate 320 g/ha, Table B9
Method in brief: (§1)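 Visual % damage versus untreated pots was read about 3 weeks after treatment, where 0% means growth as in controls and 100% means dead plants. Compounds were applied as WP or EC in water plus 0.5% additive onto the covering soil over freshly sown seeds.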

Polygonum convolvulus = test: as above; type: in vivo; details: application rate 320 g/ha, scored visually after about 3 weeks vs untreated controls
Method in brief: as §1

Stellaria media = test: Herbicidal pre-emergence action (Part 2), 1280 g/ha; type: in vivo; details: application rate 1280 g/ha, scored visually after about 3 weeks, Table D8
Method in brief: (§2)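 Sow seeds in sandy loam, cover with soil. Apply compound (WP or EC, aqueous, 0.5% additive, 600 L/ha) onto covering soil. Grow in greenhouse about 3 weeks, then rate visually as % effect against untreated controls.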

Setaria viridis = test: as above; type: in vivo; details: application rate 1280 g/ha, scored visually after about 3 weeks, Table D4
Method in brief: as §2

Echinochloa crus-galli = test: as above; type: in vivo; details: application rate 1280 g/ha, scored visually after about 3 weeks, Table D1
Method in brief: as §2

Poa annua = test: as above; type: in vivo; details: application rate 1280 g/ha, scored visually after about 3 weeks, Table D3
Method in brief: as §2

Lolium rigidum = test: as above; type: in vivo; details: application rate 1280 g/ha, scored visually after about 3 weeks, Table D2
Method in brief: as §2

Amaranthus retroflexus = test: as above; type: in vivo; details: application rate 1280 g/ha, scored visually after about 3 weeks, Table D6
Method in brief: as §2

Abutilon theophrasti = test: as above; type: in vivo; details: application rate 1280 g/ha, scored visually after about 3 weeks, Table D5
Method in brief: as §2

Matricaria inodora = test: as above; type: in vivo; details: application rate 1280 g/ha, scored visually after about 3 weeks, Table D7
Method in brief: as §2

photosystem II (PS II) = target: T1, photosystem II (PS II) (Spinacia oleracea, UniProt P69560); test: Measurement of PS II activity in thylakoid membranes (DCPIP reduction); type: biochemical, spinach; details: PS II activity in spinach thylakoid membranes, Table E1; read-out: Effect
T1 construct: the chloroplasts were osmotically ruptured and the thylakoid membranes were then obtained by centrifugation; from tissue; host or cells: fresh spinach leaves; thylakoid membrane preparation from isolated chloroplasts
Method in brief: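 Thylakoid membranes from osmotically ruptured spinach chloroplasts in 50 mM phosphate pH 6.8, 10 mM KCl; compounds added from 100 μM DMSO solution (2.5% DMSO final), 120 μM DCPIP final. DCPIP reduction under light tracked as absorbance decrease at 595 nm over 10 min at 22 °C; % inhibition binned, metribuzin as plate standard.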

`CC1CC(O)N(c2cc(C(C)(C)C)on2)C(=O)N1C` (centres unmarked) [I.41-162, 1-(5-tert-Butyl-1,2-oxazol-3-yl)-6-hydroxy-3,4-dimethyltetrahydropyrimidin-2(1H)-one] was tested, and the “Digitaria sanguinalis (efficacy in %)” value (Digitaria sanguinalis) was 100%, the “Polygonum convolvulus (efficacy in %)” value (Polygonum convolvulus) was 100% and the Stellaria media (Stellaria media) was 100%. The Setaria viridis (Setaria viridis) was 100%, the Echinochloa crus-galli (Echinochloa crus-galli) was 100% and the “Poa Annua” value (Poa annua) was 100%. It also gave a Lolium rigidum (Lolium rigidum) of 100%, an Amaranthus retroflexus (Amaranthus retroflexus) of 100% and an Abutilon theophrasti (Abutilon theophrasti) of 100%. The Matricaria inodora (Matricaria inodora) was 100% and the inhibition at 100 µM (photosystem II (PS II)) was 70 to 90%.
